Assay results published in patent US20230099089A1, “ANTIVIRAL SUBSTANCES WITH A WIDE SPECTRUM OF ACTIVITY” (Universitaet zu Luebeck Koerperschaft des Oeffentlichen …, priority 2020, published 2023).
Read-outs that look alike come from different tables or passages of the source.

Tests used:
[1] = molecular target: MERS-CoV Mpro (Middle East respiratory syndrome-related coronavirus, UniProt K9N7C7); type: biochemical
[2] = toxicity in mice
[3] = plasma protein binding; type: in vitro ADME
[4] = metabolic stability in human microsomes; settings: after 30 minutes
[5] = pharmacokinetic study 2 mg/kg i.v.; type: in vivo; settings: for CO / MRI / V / AUC(0-t) / clearance / half-life: 2 mg/kg i.v.; for AUC(0-t) / clearance / half-life: in vivo, iv
From the text: The bioavailability of the lead compound DZLO8 was also characterized in detail in an external CRO- study and the results verified.

[6] = pharmacokinetic study after subcutaneous injection in CD-1 mice
[7] = metabolic stability in mouse microsomes; settings: after 30 minutes
[8] = test system: SARS-CoV; assay: microbe, parasite or virus in culture; type: cell-based; settings: Severe acute respiratory syndrome coronavirus, Vero C1008, read-out: EC50 SARS-CoV
[9] = test system: MERS-CoV; assay: microbe, parasite or virus in culture; type: cell-based, MERS coronavirus; settings: Middle East respiratory syndrome-related coronavirus
[10] = test system: HCoV-229E; assay: microbe, parasite or virus in culture; type: cell-based; settings: Human coronavirus 229E, Huh-7, read-out: EC50 HCoV-229E
[11] = test system: CVB3; assay: microbe, parasite or virus in culture; type: cell-based, coxsackievirus B3; settings: Enterovirus B, CVB3, read-out: EC50 CVB3
[12] = test system: EV-A71; assay: microbe, parasite or virus in culture; type: cell-based; settings: Enterovirus A, EVA71, read-out: EC50 EV-A71
[13] = CD-1 mice, 20 mg/kg subcutaneous
[14] = CD-1 mice, 20 mg/kg subcutaneous, after 24 hours

MERS-CoV Mpro, sequence (K9N7C7 3248-3553 limits assumed): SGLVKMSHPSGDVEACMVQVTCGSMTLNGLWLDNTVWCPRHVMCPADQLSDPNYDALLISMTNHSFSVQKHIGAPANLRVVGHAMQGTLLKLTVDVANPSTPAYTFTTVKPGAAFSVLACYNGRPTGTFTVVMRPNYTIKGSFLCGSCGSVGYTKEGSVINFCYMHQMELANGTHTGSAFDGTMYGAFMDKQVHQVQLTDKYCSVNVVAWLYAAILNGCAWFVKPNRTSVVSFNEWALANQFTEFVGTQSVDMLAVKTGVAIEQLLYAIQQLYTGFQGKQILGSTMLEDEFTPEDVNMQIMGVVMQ

Q: With CC(C)(C)OC(=O)Nc1cccn([C@@H](CC2CC2)C(=O)N[C@@H](C[C@@H]2CCNC2=O)C(=O)C(=O)NCc2ccccc2)c1=O [RHCDS1c] as the compound, how does the IC50 [1] read?
A: 580 nM

Q: What does the source list for CC(C)(C)OC(=O)Nc1cccn([C@@H](CC2CCCCC2)C(=O)N[C@@H](C[C@@H]2CCNC2=O)C(=O)C(=O)NC2CC2)c1=O [RHCDS1e]?
A: toxicity in mice [2]: No evidence of toxicity; fraction unbound [3]: 0.06; compound remained metabolically stable [4]: 60%; CO [5]: 461.44 ± 345.0 ng/mL; MRI [5]: 0.47 ± 0.1 h; V [5]: 6.73 ± 0.4 L/kg; AUC(0-t) [5]: 193 ± 59 ng·h/mL; clearance [5]: 178 ± 51.2 mL/min/kg; half-life [5]: 27 ± 6 min; improved half-life compared to the lead compound ([5]; versus DZL08): 50%; MRT ([6]; CD-1, mouse, in vivo, sc, 20 mg/kg): ~95.4 min; Cmax [6, 13]: 334.50 ng/mL; time excreted in urine [6, 13]: up to 24 hours; time the compound remained in plasma [6, 13]: about 4 hours; concentration in broncheoalveolar washing fluid (BALF) [6, 14]: 52.7 ng/mL; concentration in the lung [6, 14]: 135 ng per g tissue; compound remained metabolically stable [7]: 80%

Q: With O=C(/C=C/c1ccccc1)N[C@@H](CC1CCCCC1)C(=O)N[C@@H](C[C@@H]1CCNC1=O)C(=O)C(=O)NCc1ccccc1 [DZL08, reference compound] as the compound, how does the EC50 [8] read?
A: 2100 nM

Q: And the EC50 ([9]; Huh-7, read-out: EC50 MERS-CoV)?
A: 0.4 nM

Q: What about the EC50 ([9]; Vero, read-out: EC50 MERS-CoV) of the same compound?
A: 5000 nM

Q: And the fraction unbound ([3]; read-out: plasma protein binding)?
A: 0.01

Q: And the CO [5]?
A: 278.34 ± 138.5 ng/mL

Q: What about the MRI [5] of the same compound?
A: 0.48 ± 0.0 h

Q: And the V [5]?
A: 8.20 ± 4.1 L/kg

Q: What about the AUC(0-t) [5] of the same compound?
A: 135 ± 74.6 ng·h/mL

Q: What about the clearance [5] of the same compound?
A: 292 ± 162 mL/min/kg

Q: What about the half-life [5] of the same compound?
A: 19.8 min

Q: What about the EC50 [10] of the same compound?
A: 1800 nM

Q: What about the EC50 [11] of the same compound?
A: 2800 nM

Q: And the EC50 [12]?
A: 3700 nM
